Measured values: US6743923B2, “Antirheumatic agent” (Shionogi & Co., Ltd., priority 1997, dated 2004)

How the values were obtained:
[1] = tested on: adjuvant articular swelling; test: Rat adjuvant arthritis: inhibitory effect against articular swelling; format: in vivo
Experimental: (§1) A rat adjuvant arthritis model, which is commonly used in an in vivo evaluation for antirheumatic agents, was employed in this evaluation. To prepare an arthritis model, heat-killed cells of Mycobacterium butyricum (Difco) were suspended in mineral oil, and a rat was intradermally injected with 0.05 mL of 1% solution of the suspension at the plantar of left hind leg.
Using the above arthritis model, Compound Ia was administered to the animal for 22 days after injection of the adjuvant, and the articular swelling was measured from time to time to evaluate the prophylactic inhibitory effect. On the other hand, the curative effect was evaluated by administering Compound Ia to animals from Day 15 to Day 25 after injection of the adjuvant and measuring the articular swelling in injected and non-injected legs. Inhibitory and curative effects were expressed by effective dose for 30% inhibition (ED30).

[2] = tested on: IL-6 level in articular tissue; test: Rat adjuvant arthritis: repressive effect on the IL-6 level in articular tissue; format: in vivo; conditions: oral, 18 days after adjuvant injection, non-injected leg
Experimental: Another adjuvant arthritis model animal was prepared apart from the above experiments, and a compound was orally administered to the animal for 18 days after the adjuvant injection. The non-injected leg was then amputated under anesthetization, epidermis of the amputated leg was ablated, the leg was frozen in liquid nitrogen, and the arthrosis part was crushed by a crushing machine. To a measured quantity of the crushed arthrosis, 3 mL of ice-cold PBS was added and homogenized with a homogenizer under ice-cooling. The resultant homogenate was centrifuged at 4° C. for 20 minutes at 3,000 rpm to collect the supernatant, which was then passed through a 0.45 μm filter to prepare a sample. The sample and MH60 BSF2 cells (derived from mouse, require IL-6) were incubated on a 96-well plate under defined conditions, and the absorbance was measured at two wave lengths of 540 nm and 690 nm. The IL-6 level in the sample was calculated based on the standard curve prepared using a recombinant human IL-6.

NZB/KN mouse = test: Inhibitory effect against bone destruction in spontaneous rheumatic model NZB/KN mouse; format: in vivo; conditions: male NZB/KN mice, oral, five times a week
Text: To male NZB/KN mice, in which a human RA-like pathology arises spontaneously due to their immunologically abnormal background, was orally administered Compound Ia once in a day (five times a week) for six months beginning at two-month-age. The mice which reached six month old (some were eight month old) were full-length radiographed under anesthetization and predetermined conditions using a soft X-ray generator (OM-55, Omic). According to the method of Nakamura, et. al. [Arthritis. Rheum., 34, 171-179 (1991)], the number of the lesions observed in the bones and articular regions in the whole body were counted on the basis of the soft X-ray radiographed films, and the total number of the observed lesions were defined as the number of the bone disorders in the animal. The results were shown using mean±standard deviation, and significance test was performed according to Dunnett-t test (*p<0.05, ** p<0.01: vs. vehicle group).

[3] = tested on: IL-6 production from synovial membrane cells of RA patients; test: Inhibitory activity against IL-6 production, synovial membrane cells from RA patient; format: cell-based, human; conditions: synovial membrane cells from RA patient
[4] = tested on: articular destruction in adjuvant arthritis; test: Rat adjuvant arthritis: inhibitory effect against articular destruction (X-ray score); format: in vivo
Experimental: as §1
The right and left hind legs of the arthritis rats used in the above experiments were radiographed using a soft X-ray radiation and evaluated by the X-ray observation score for the bone destruction in the arthrosis. The effects were numerically evaluated by grading the articular destruction from 0 to 3 (0: normal; 1: low degree of articular and bone destruction; 2: medium degree of articular and bone destruction, and neogenesis of cartilage; 3: strong articular and bone destruction), and the efficacy in the drug-administered group was determined in comparison with the vehicle-administered group according to Wilcoxon U-test (*p<0.05, **p<0.01)(FIG. 2).

blood NOx level = test: Suppressive effect on blood NOx level in adjuvant arthritis rat; format: in vivo; conditions: oral, 28 days
Experimental: An adjuvant arthritis model was prepared in the same manner as above, and the compounds were orally administered to the animals for 28 days beginning on the day before the adjuvant injection. Blood was then collected under anesthetization and the serum was ultracentrifuged. The supernatant was ultrafiltrated to prepare a sample for NOx (nitrite+nitrate) measurement.

[5] = tested on: transcription factor NFκB; test: Suppressive activity on transcription factor NFκB (HIV-1 LTR luciferase reporter in Jurkat cell); format: cell-based, human; conditions: for luciferase activity (%) mean ± standard error: TPA-PHA = 100
Experimental: A recombinant plasmid (pGV-B.HIV-1LTR), in which HIV-1 (AIDS) virus promoter LTR containing two NFκB binding sites is ligated to upstream of firefly luciferase gene, was constructed, and the DNA was purified. This plasmid DNA was introduced by electroporation into a Jurkat cell, a human T cell leukemic cell line, and the cell was cultured for 48 hours. Subsequently, phytohemagglutinin (PHA, 0.5%), phorbol ester (TPA (12-O-tetradecanoylphorbol 13-acetate), 25 ng/mL), and a predetermined concentration of the test compound were added thereto to allow to react for 2 hours, and the cells were harvested, and the luciferase activity in the cellular extract was measured.

[6] = tested on: osteoclast formation in mouse myeloblast; test: Inhibition of IL-1β-enhanced formation of osteoclast in mouse myeloblast culture; format: cell-based; conditions: 2.5 ng/mL human IL-1β, six days, TRAP positive multinucleate cells
Experimental: (§2) It has been known that the enhanced formation of osteoclast is induced in the mouse myeloblast culture by addition of IL-1β and such effect is derived from PGE2 production through COX-2 induction. In order to determine inhibitory effect of the compounds against such effect, myeloblasts were collected from a ddY male mice, plated in a 48-well plate at 1×10^6/well and incubated. After culturing for six days in an α-MEM medium containing 10% fetal bovine serum, to which 2.5 ng/mL of human IL-1β and a predetermined concentration of the compounds were added, PGE2 level in the supernatant was measured by RIA kit. On the other hand, cells adhering on the plate were immobilized, and an activity staining of tartaric acid resistant acid phosphatase (TRAP), which is a marker enzyme for osteoclast, was conducted, whereby the number of TRAP positive cells having multinucleate (N>3) per well was counted as osteoclast.

[7] = tested on: serum amyloid protein (SAP); test: Effect on MRL/l mouse blood acute phase protein SAP; format: in vivo; conditions: oral, five times a week, 13 weeks
Experimental: After the last administration of the compound, blood was collected under anesthetization, and the serum was used for SAP measurement. SAP has been used as a marker for rheumatism. A 96-well plate was coated with rabbit anti-mouse SAP serum, and the serum to be tested was then added to the plate and incubated for 2 hours. After addition of sheep anti-mouse SAP serum, a rabbit anti-sheep IgG antibody labeled with alkaline phosphatase and then a substrate were added to the plate, and OD of developed color was measured at 405 nm.

PGE2 production = test: Inhibition of PGE2 production due to IL-1β stimulation in mouse myeloblast culture; format: cell-based; conditions: 2.5 ng/mL human IL-1β, six days, RIA
Experimental: as §2

## CCN1CC/C(=C\c2cc(C(C)(C)C)c(O)c(C(C)(C)C)c2)S1(=O)=O [Compound Ia, (E)-2-Ethyl-5-(3,5-di-tert-butyl-4-hydroxy)benzylidene-1,2-isothiazolidine-1,1-dioxide]
[1]; curative
  dose with dose-dependent and significant inhibitory effect against articular swelling, curative effect: ≥ 3 mg/kg/day
[1]; prophylactic, adjuvant-injected leg
  dose with dose-dependent and significant inhibitory effect against articular swelling: ≥ 0.3 mg/kg/day
[1]; rat, administered for 22 days after injection of the adjuvant
  ED30 (95% confidence limits), prophylactic effect against adjuvant articular swelling: 0.88 (0.52-1.31) mg/kg/day
[1]; rat, administered from Day 15 to Day 25 after injection of the adjuvant
  ED30 (95% confidence limits), curative effect against adjuvant articular swelling: 2.6 (1.3-6.4) mg/kg/day
[2]
  dose with dose-dependent and significant inhibitory effect against the increase of the IL-6 level in the articular tissue: ≥ 3 mg/kg/day
NZB/KN mouse
  dose with significant improving effect on the bone-articular lesions: ≥ 10 mg/kg/day
[3]
  IC50: 10 µM
[4]; adjuvant-injected leg
  dose with dose-dependent and significant inhibitory effect against the articular destruction: ≥ 3 mg/kg/day
[4]; non-injected leg
  dose with dose-dependent and significant inhibitory effect against the articular destruction: ≥ 1 mg/kg/day
Blood NOx level
  dose with dose-dependent and significant inhibitory effect on the increase of blood NOx level: ≥ 3 mg/kg/day
[5]; Experiment-1, 5 μM
  luciferase activity (%) mean ± standard error: 82.2 ± 8.3%
[5]; Experiment-1, 10 μM
  luciferase activity (%) mean ± standard error: 79.6 ± 5.4%
[5]; Experiment-1, 20 μM
  luciferase activity (%) mean ± standard error: 54.6 ± 4.3%
[5]; Experiment-1, 50 μM
  luciferase activity (%) mean ± standard error: 53.5 ± 5.9%
[5]; Experiment-2, 20 μM
  luciferase activity (%) mean ± standard error: 86.4 ± 1.9%
[5]; Experiment-2, 50 μM
  luciferase activity (%) mean ± standard error: 75.1%
[5]; Experiment-2, 100 μM
  luciferase activity (%) mean ± standard error: 61.1 ± 3.9%
[5]; Jurkat cell, TPA-PHA
  concentration at which luciferase activity was inhibited: 5 to 50 µM
[6]
  IC50: 1.3 nM
[7]; 50 mg/kg/day
  effect on blood SAP: significant results
[7]; 2-50 mg/kg/day
  effect on blood SAP: repressive tendency in a dose-dependent manner
PGE2 production
  IC50: 0.21 nM
